Assay [1] has as its system BMSC (primary human bone marrow mesenchymal stromal cells). The experiment in a line: drug sensitivity score (DSS); higher = more sensitive.
Assay [2] has the same test system. The experiment in a line: absolute EC50 for viability; higher = less sensitive.

Each structure is given as a SMILES string.

`CC1(C)C(C(=O)Nc2ccc(S(=O)(=O)c3ccc(NC(=O)C4C(C)(C)C4(C)C)cc3)cc2)C1(C)C` [BRD7116] had a drug sensitivity score in assay [1] of 0. The “absolute EC50 for viability” value in assay [2] was greater than 10 µM.

The molecule `CCCCCCCCCCCCCCCCOP(=O)([O-])OCC[N+](C)(C)C` [Miltefosine] yielded a drug sensitivity score in assay [1] of 2.7. Further, in assay [2], the “absolute EC50 for viability” value was 78.2 µM.

In turn, `COc1ccc(C[C@H](NC(=O)[C@H](C)NC(=O)CN2CCOCC2)C(=O)N[C@@H](Cc2ccccc2)C(=O)C2(C)CO2)cc1` (stereo in doubt) [ONX-0914] displayed a drug sensitivity score in assay [1] of 16.1. For the same molecule, the “absolute EC50 for viability” value in assay [2] worked out at 0.391 µM.

`NCC(=O)Nc1ccc(-n2nc(C(F)(F)F)cc2-c2ccc3c(ccc4ccccc43)c2)cc1`: the drug sensitivity score in assay [1] was determined as 0.5. For the same molecule, the “absolute EC50 for viability” value in assay [2] is greater than 25 µM.

Consider `O=C(Nc1cccnc1)N1CCC(Cc2cccc(Oc3ccc(C(F)(F)F)cn3)c2)CC1` [PF-3845], for which the drug sensitivity score in assay [1] came to 0. Also, the “absolute EC50 for viability” value in assay [2] was 9.93 µM.

In assay [1], `CC1(C)CC[C@]2(NC(=O)C(C)(F)F)CC[C@]3(C)[C@H](C(=O)C=C4[C@@]5(C)C=C(C#N)C(=O)C(C)(C)[C@@H]5CC[C@]43C)[C@@H]2C1` [Omaveloxolone] returned a drug sensitivity score of 4.7. The “absolute EC50 for viability” value in assay [2] was determined as 3.77 µM.

In the case of `COc1cc(N2CCC(N3CCN(C)CC3)CC2)ccc1Nc1ncc(Cl)c(Nc2ccccc2P(C)(C)=O)n1` [Brigatinib], the drug sensitivity score in assay [1] was found to be 2.8. Besides, the “absolute EC50 for viability” value in assay [2] stood at 0.945 µM.

On to `CCN(CC)CCNC(=O)c1c(C)[nH]c(/C=C2\C(=O)Nc3ccc(-c4csc(-c5ccccc5)n4)cc32)c1C` [Amcasertib], for which the drug sensitivity score in assay [1] came out at 5.9. Besides, in assay [2], the “absolute EC50 for viability” value was 2.78 µM.

In assay [1], `COc1cc2/c(=N/c3ccc(Br)cc3F)nc[nH]c2cc1OCC1CCN(C)CC1` [Vandetanib] had a drug sensitivity score of 2.5. In assay [2], the “absolute EC50 for viability” value was greater than 1 µM.

Molecule `CC(C)[C@H](C(=O)Nc1ccc(C(=O)NO)cc1)c1ccccc1` [AR-42] gave a drug sensitivity score in assay [1] of 7.5. The “absolute EC50 for viability” value in assay [2] came out at 1.94 µM.

With `C[C@H]1C[C@@H](n2c(Nc3ccc(OC(F)(F)F)cc3)nc3cc(CCC(=O)O)ccc32)CC(C)(C)C1`, the drug sensitivity score in assay [1] is 0. Also, in assay [2], the “absolute EC50 for viability” value is greater than 10 µM.

Molecule `Cc1cn(-c2cc(NC(=O)c3ccc(C)c(Nc4nccc(-c5cccnc5)n4)c3)cc(C(F)(F)F)c2)cn1` [Nilotinib] gave a drug sensitivity score in assay [1] of 0. In addition, the “absolute EC50 for viability” value in assay [2] was greater than 10 µM.

`CCCCCCCCCCCCCCCCCCOP(=O)([O-])OC1CC[N+](C)(C)CC1` [Perifosine] had a drug sensitivity score in assay [1] of 0. The “absolute EC50 for viability” value in assay [2] was greater than 2.5 µM.

`NCCNc1ccc(NCCN)c2c1C(=O)c1ccncc1C2=O` [Pixantrone]: the drug sensitivity score in assay [1] was 0. Moreover, in assay [2], the “absolute EC50 for viability” value is greater than 10 µM.

`FC(F)(F)c1ccc(CNc2ccc(Cc3c[nH]c4ncc(Cl)cc34)cn2)cn1` [Pexidartinib] had a drug sensitivity score in assay [1] of 3.6. The “absolute EC50 for viability” value in assay [2] was greater than 10 µM.

For the molecule `CN(C)C/C=C/C(=O)Nc1cccc(C(=O)Nc2cccc(Nc3ncc(Cl)c(-c4c[nH]c5ccccc45)n3)c2)c1` [THZ2], the drug sensitivity score in assay [1] came to 11.1. Further, in assay [2], the “absolute EC50 for viability” value is 2.71 µM.

For `COc1cc2c(cc1-c1c(C)noc1C)ncc1[nH]c(=O)n([C@H](C)c3ccccn3)c12` [I-BET151], the drug sensitivity score in assay [1] amounted to 3.5. In addition, the “absolute EC50 for viability” value in assay [2] was greater than 10 µM.

As for `CC[C@@H]1CN(C(=O)NCC(F)(F)F)C[C@@H]1c1cnc2cnc3[nH]ccc3n12` [Upadacitinib], in assay [1], the drug sensitivity score stood at 1.1. The “absolute EC50 for viability” value in assay [2] is greater than 10 µM.

Take `CCn1c(-c2nonc2N)nc2cnc(Oc3cccc(NC(=O)c4ccc(OCCN5CCOCC5)cc4)c3)cc21`: in assay [1], the drug sensitivity score was found to be 7.3. The “absolute EC50 for viability” value in assay [2] was greater than 10 µM.

Molecule `CC[C@H](NC(=O)[C@H](C)NC)C(=O)N1C[C@@H](O)C[C@H]1Cc1c(-c2[nH]c3cc(F)ccc3c2C[C@@H]2C[C@H](O)CN2C(=O)[C@H](CC)NC(=O)[C@H](C)NC)[nH]c2cc(F)ccc12` [Birinapant] gave a drug sensitivity score in assay [1] of 0. For the same molecule, the “absolute EC50 for viability” value in assay [2] is greater than 1 µM.

As to `C=CC(=O)N1CC/C(=C\c2ccc(F)c([N+](=O)[O-])c2)C(=O)/C(=C/c2ccc(F)c([N+](=O)[O-])c2)C1` [VLX1570], the drug sensitivity score in assay [1] came to 9.6. In addition, the “absolute EC50 for viability” value in assay [2] was determined as 1.4 µM.

Consider `CC(=O)Nc1ccc(C(=O)Nc2ccccc2N)cc1` [Tacedinaline], for which, in assay [1], the drug sensitivity score is 0. The “absolute EC50 for viability” value in assay [2] is greater than 1 µM.

Molecule `Cn1c(=O)n(-c2ccc(C(C)(C)C#N)cc2)c2c3cc(-c4cnc5ccccc5c4)ccc3ncc21` [Dactolisib] had a drug sensitivity score in assay [1] of 10.7. Besides, the “absolute EC50 for viability” value in assay [2] came to 0.114 µM.

For the molecule `O=C1CCc2c(Oc3ccc4c(c3)[C@@H]3[C@H](O4)[C@H]3c3nc4cc(C(F)(F)F)ccc4[nH]3)ccnc2N1` [BGB-283], the drug sensitivity score in assay [1] was 4.2. Besides, the “absolute EC50 for viability” value in assay [2] was greater than 10 µM.

As for `CCc1cnn2c(NCc3ccc[n+]([O-])c3)cc(N3CCCC[C@H]3CCO)nc12` [Dinaciclib], in assay [1], the drug sensitivity score amounted to 8.1. Also, the “absolute EC50 for viability” value in assay [2] is greater than 1 µM.

For the molecule `O=c1[nH]c(C2CCCN2)nc2c1oc1ccc(Cl)cc12` (stereo not given), the drug sensitivity score in assay [1] was found to be 0.6. In assay [2], the “absolute EC50 for viability” value was greater than 10 µM.

For `Cc1ccc(F)c(NC(=O)Nc2ccc(-c3cccc4[nH]nc(N)c34)cc2)c1` [Linifanib], the drug sensitivity score in assay [1] came out at 0. The “absolute EC50 for viability” value in assay [2] is greater than 1 µM.

Consider `CCN1CCN(c2ccc(Nc3cc(N(C)C(=O)Nc4c(Cl)c(OC)cc(OC)c4Cl)ncn3)cc2)CC1` [Infigratinib], for which the drug sensitivity score in assay [1] was 0. Also, in assay [2], the “absolute EC50 for viability” value was greater than 1 µM.

With `CNC(=O)[C@@H](NC(=O)[C@H](CC(C)C)[C@H](O)C(=O)NO)C(C)(C)C` [Marimastat], the drug sensitivity score in assay [1] came out at 0. In addition, in assay [2], the “absolute EC50 for viability” value is greater than 10 µM.

The molecule `Cc1nc(Nc2ncc(C(=O)Nc3c(C)cccc3Cl)s2)cc(N2CCN(CCO)CC2)n1` [Dasatinib] yielded a drug sensitivity score in assay [1] of 9.2. The “absolute EC50 for viability” value in assay [2] came to 0.132 µM.

Molecule `CNc1nc(-c2ccc3c(N)n[nH]c3c2)cc(N2C[C@@H](C(=O)NC3CCCCC3)CC[C@H]2C)n1` gave a drug sensitivity score in assay [1] of 5.4. For the same molecule, in assay [2], the “absolute EC50 for viability” value is greater than 10 µM.

`O=C(NCc1ccncc1)C12CC3CC(C1)CC(c1ccc(Cl)cc1)(C3)C2` returned a drug sensitivity score in assay [1] of 3.3. In addition, the “absolute EC50 for viability” value in assay [2] is greater than 50 µM.

The molecule `CCS(=O)(=O)N1CCN(c2ccc(Nc3ncc(C(N)=O)c(NC4CC4)n3)cc2)CC1` [Cerdulatinib] came in with a drug sensitivity score in assay [1] of 5.1. Further, the “absolute EC50 for viability” value in assay [2] is greater than 10 µM.

`CC1(N)CCN(c2cnc(-c3cccc(Cl)c3Cl)c(N)n2)CC1` [NVP-SHP099] came in with a drug sensitivity score in assay [1] of 0. Besides, the “absolute EC50 for viability” value in assay [2] is greater than 10 µM.

Turning to `O=C(Nc1cc(Cl)cc2c1[nH]c1cnccc12)c1cccnc1` [PS-1145], the drug sensitivity score in assay [1] worked out at 0. In assay [2], the “absolute EC50 for viability” value is greater than 25 µM.

`CCCc1cc(C)[nH]c(=O)c1CNC(=O)c1cc(-c2ccnc(N3CCN(C)CC3)c2)cc2c1cnn2C(C)C` [GSK343] yielded a drug sensitivity score in assay [1] of 0. The “absolute EC50 for viability” value in assay [2] is greater than 1 µM.

Turning to `Cc1c(Cn2c(C)nc3c(C(=O)O)cc(N4CCOCC4)cc32)cccc1C(F)(F)F`, the drug sensitivity score in assay [1] came to 0. The “absolute EC50 for viability” value in assay [2] is greater than 10 µM.

Turning to `O=C(CCCCCCC(=O)Nc1ccccc1)NO` [Vorinostat], the drug sensitivity score in assay [1] was determined as 5.6. Also, the “absolute EC50 for viability” value in assay [2] was found to be 2.94 µM.

`COc1cc2ncnc(Nc3cccc(Cl)c3F)c2cc1OC(=O)N1CCN(C)C[C@H]1C` [AZD3759]: the drug sensitivity score in assay [1] was found to be 0. Further, the “absolute EC50 for viability” value in assay [2] is greater than 1 µM.

`NS(=O)(=O)OC[C@@H]1C[C@@H](n2ccc3c(N[C@H]4CCc5ccccc54)ncnc32)C[C@@H]1O` [Pevonedistat] had a drug sensitivity score in assay [1] of 5.4. The “absolute EC50 for viability” value in assay [2] is greater than 10 µM.

For `Nc1ncn([C@@H]2O[C@H](CO)[C@@H](O)[C@H]2O)c(=O)n1` [Azacitidine], in assay [1], the drug sensitivity score is 2.3. Moreover, the “absolute EC50 for viability” value in assay [2] is greater than 10 µM.

The molecule `CO[C@H]1CC[C@H](N2C(=O)CNc3ncc(-c4ccc(C(C)(C)O)nc4)nc32)CC1` [CC-223] registered a drug sensitivity score in assay [1] of 4.4. Further, in assay [2], the “absolute EC50 for viability” value is 6.04 µM.

In turn, `COc1cccc(-c2ccc(NC(=O)C3=C(C(=O)O)CCC3)c(F)c2)c1` [Vidofludimus] gave a drug sensitivity score in assay [1] of 0. In addition, the “absolute EC50 for viability” value in assay [2] is greater than 10 µM.

`Nc1ccn([C@@H]2O[C@H](CO)[C@@H](O)[C@@H]2O)c(=O)n1` [Cytarabine]: the drug sensitivity score in assay [1] is 1.2. Moreover, the “absolute EC50 for viability” value in assay [2] was greater than 10 µM.

In turn, `C#Cc1cccc(Nc2ncnc3cc4c(cc23)OCCOCCOCCO4)c1` [Icotinib] displayed a drug sensitivity score in assay [1] of 2.1. Also, the “absolute EC50 for viability” value in assay [2] is greater than 10 µM.

As to `COc1cccc2c1C(=O)c1c(O)c3c(c(O)c1C2=O)C[C@@](O)(C(=O)CO)C[C@@H]3O[C@H]1C[C@H](N)[C@@H](O)[C@H](C)O1` [Epirubicin], the drug sensitivity score in assay [1] was determined as 6.4. For the same molecule, in assay [2], the “absolute EC50 for viability” value was 0.249 µM.

`CO[C@H]1C[C@@H]2CC[C@@H](C)[C@@](O)(O2)C(=O)C(=O)N2CCCC[C@H]2C(=O)O[C@H]([C@H](C)C[C@@H]2CC[C@@H](OCCO)[C@H](OC)C2)CC(=O)[C@H](C)/C=C(\C)[C@@H](O)[C@@H](OC)C(=O)[C@H](C)C[C@H](C)/C=C/C=C/C=C/1C` [Everolimus]: the drug sensitivity score in assay [1] came to 5.2. The “absolute EC50 for viability” value in assay [2] is greater than 0.1 µM.

`CN1CCN(c2ccc(C(=O)Nc3n[nH]c4ccc(Cc5cc(F)cc(F)c5)cc34)c(NC3CCOCC3)c2)CC1` [Entrectinib]: the drug sensitivity score in assay [1] turned out to be 0.8. In assay [2], the “absolute EC50 for viability” value is greater than 1 µM.

The molecule `Nc1ccccc1NC(=O)c1ccc(CNC(=O)OCc2cccnc2)cc1` [Entinostat] had a drug sensitivity score in assay [1] of 3.5. Further, the “absolute EC50 for viability” value in assay [2] is greater than 10 µM.

As for `Cn1cc(-c2ccc(F)c(C(F)(F)F)c2)nc1C1CCN(c2ncnc3[nH]ncc23)CC1`, in assay [1], the drug sensitivity score is 0. For the same molecule, the “absolute EC50 for viability” value in assay [2] was greater than 10 µM.

The values above are taken from the supplement of paper PMC9103864.
